Data: BindingDB's records for doi:10.1016/s0960-894x(03)00205-1 (Abbott Laboratories, 2003)

Assay: Potassium channel opening activity in vitro using LtK cells transfected with Kir6.2/SUR2B exon 17

| EC50 [nM] | SMILES |
| --- | --- |
| 276 | O=C(Nc1ccc(Cl)cc1)Nc1c(C(O)(C(F)(F)F)C(F)(F)F)ccc2ccccc12 [1-(4-Chloro-phenyl)-3-[2-(2,2,2-trifluoro-1-hydroxy-1-trifluoromethyl-ethyl)-naphthalen-1-yl]-urea] |
| 4840 | O=C(NCCCCCCCl)Nc1c(C(O)(C(F)(F)F)C(F)(F)F)ccc2ccccc12 [1-(6-Chloro-hexyl)-3-[2-(2,2,2-trifluoro-1-hydroxy-1-trifluoromethyl-ethyl)-naphthalen-1-yl]-urea] |
| > 10000 | O=C(Nc1c(C(O)(C(F)(F)F)C(F)(F)F)ccc2ccccc12)c1cccc(Cl)c1Cl [2,3-Dichloro-N-[2-(2,2,2-trifluoro-1-hydroxy-1-trifluoromethyl-ethyl)-naphthalen-1-yl]-benzamide] |
| 2040 | O=C(Nc1c(C(O)(C(F)(F)F)C(F)(F)F)ccc2ccccc12)c1ccccc1Cl [2-Chloro-N-[2-(2,2,2-trifluoro-1-hydroxy-1-trifluoromethyl-ethyl)-naphthalen-1-yl]-benzamide] |
| 81 | O=C(CC1CCCC1)Nc1c(C(O)(C(F)(F)F)C(F)(F)F)ccc2ccccc12 [2-Cyclopentyl-N-[2-(2,2,2-trifluoro-1-hydroxy-1-trifluoromethyl-ethyl)-naphthalen-1-yl]-acetamide] |
| 4340 | CCC(CC)C(=O)Nc1c(C(O)(C(F)(F)F)C(F)(F)F)ccc2ccccc12 [2-Ethyl-N-[2-(2,2,2-trifluoro-1-hydroxy-1-trifluoromethyl-ethyl)-naphthalen-1-yl]-butyramide] |
| 5550 | Cc1ccccc1C(=O)Nc1c(C(O)(C(F)(F)F)C(F)(F)F)ccc2ccccc12 [2-Methyl-N-[2-(2,2,2-trifluoro-1-hydroxy-1-trifluoromethyl-ethyl)-naphthalen-1-yl]-benzamide] |
| 177000 | CCC(C)C(=O)Nc1c(C(O)(C(F)(F)F)C(F)(F)F)ccc2ccccc12 (stereo unspecified) [2-Methyl-N-[2-(2,2,2-trifluoro-1-hydroxy-1-trifluoromethyl-ethyl)-naphthalen-1-yl]-butyramide] |
| > 10000 | CCCC(C)C(=O)Nc1c(C(O)(C(F)(F)F)C(F)(F)F)ccc2ccccc12 (stereo unspecified) [2-Methyl-pentanoic acid [2-(2,2,2-trifluoro-1-hydroxy-1-trifluoromethyl-ethyl)-naphthalen-1-yl]-amide] |
| 194 | O=C(Nc1c(C(O)(C(F)(F)F)C(F)(F)F)ccc2ccccc12)c1ccc(Cl)c(Cl)c1 [3,4-Dichloro-N-[2-(2,2,2-trifluoro-1-hydroxy-1-trifluoromethyl-ethyl)-naphthalen-1-yl]-benzamide] |
| 306 | O=C(Nc1c(C(O)(C(F)(F)F)C(F)(F)F)ccc2ccccc12)c1cc(Cl)cc(Cl)c1 [3,5-Dichloro-N-[2-(2,2,2-trifluoro-1-hydroxy-1-trifluoromethyl-ethyl)-naphthalen-1-yl]-benzamide] |
| 80 | O=C(Nc1c(C(O)(C(F)(F)F)C(F)(F)F)ccc2ccccc12)c1cccc(Br)c1 [3-Bromo-N-[2-(2,2,2-trifluoro-1-hydroxy-1-trifluoromethyl-ethyl)-naphthalen-1-yl]-benzamide] |
| 98 | O=C(Nc1c(C(O)(C(F)(F)F)C(F)(F)F)ccc2ccccc12)c1cccc(Cl)c1 [3-Chloro-N-[2-(2,2,2-trifluoro-1-hydroxy-1-trifluoromethyl-ethyl)-naphthalen-1-yl]-benzamide] |
| 12 | N#Cc1cccc(C(=O)Nc2c(C(O)(C(F)(F)F)C(F)(F)F)ccc3ccccc23)c1 [3-Cyano-N-[2-(2,2,2-trifluoro-1-hydroxy-1-trifluoromethyl-ethyl)-naphthalen-1-yl]-benzamide] |
| 44 | O=C(Nc1c(C(O)(C(F)(F)F)C(F)(F)F)ccc2ccccc12)c1cccc(F)c1 [3-Fluoro-N-[2-(2,2,2-trifluoro-1-hydroxy-1-trifluoromethyl-ethyl)-naphthalen-1-yl]-benzamide] |
| 185 | COc1cccc(C(=O)Nc2c(C(O)(C(F)(F)F)C(F)(F)F)ccc3ccccc23)c1 [3-Methoxy-N-[2-(2,2,2-trifluoro-1-hydroxy-1-trifluoromethyl-ethyl)-naphthalen-1-yl]-benzamide] |
